# Source: the NIST ThermoML archive (doi:10.1021/acs.jced.5b00367)
# Numbers after ± are expanded uncertainties.
# Assay: wn = mass fraction of the nth substance listed
# Conditions: 101 kPa, Liquid, Alternating current cell with electrodes, w2 = 0.01
structure (smiles),measurement,setting,value
"CCCCCCCCCCCCCCCC[N+](C)(C)C.[Br-] [N,N,N-trimethyl-1-hexadecanaminium bromide] + O",electrical conductivity,278.35 K,0.0058 ± 0.0023 S/m
same,electrical conductivity,278.45 K,0.00619 ± 0.0025 S/m
same,electrical conductivity,278.65 K,0.00607 ± 0.0024 S/m
same,electrical conductivity,278.75 K,0.00612 ± 0.0024 S/m
same,electrical conductivity,278.85 K,0.0062 ± 0.0025 S/m
same,electrical conductivity,278.95 K,0.00609 ± 0.0024 S/m
same,electrical conductivity,279.05 K,0.00617 ± 0.0025 S/m
same,electrical conductivity,279.15 K,0.00614 ± 0.0025 S/m
same,electrical conductivity,279.25 K,0.0062 ± 0.0025 S/m
same,electrical conductivity,279.35 K,0.00616 ± 0.0025 S/m
same,electrical conductivity,279.45 K,0.00619 ± 0.0025 S/m
same,electrical conductivity,279.55 K,0.00628 ± 0.0025 S/m
same,electrical conductivity,279.65 K,0.00609 ± 0.0024 S/m
same,electrical conductivity,279.85 K,0.0061 ± 0.0024 S/m
same,electrical conductivity,279.95 K,0.00631 ± 0.0025 S/m
same,electrical conductivity,280.05 K,0.00615 ± 0.0025 S/m
same,electrical conductivity,280.15 K,0.00638 ± 0.0026 S/m
same,electrical conductivity,280.25 K,0.00613 ± 0.0024 S/m
same,electrical conductivity,280.35 K,0.00642 ± 0.0026 S/m
same,electrical conductivity,280.45 K,0.00634 ± 0.0025 S/m
same,electrical conductivity,280.55 K,0.00613 ± 0.0024 S/m
same,electrical conductivity,280.65 K,0.00616 ± 0.0025 S/m
same,electrical conductivity,280.75 K,0.00638 ± 0.0026 S/m
same,electrical conductivity,280.95 K,0.00614 ± 0.0025 S/m
same,electrical conductivity,281.05 K,0.00624 ± 0.0025 S/m
same,electrical conductivity,281.25 K,0.00621 ± 0.0025 S/m
same,electrical conductivity,281.35 K,0.00655 ± 0.0026 S/m
same,electrical conductivity,281.45 K,0.00644 ± 0.0026 S/m
same,electrical conductivity,281.55 K,0.00622 ± 0.0025 S/m
same,electrical conductivity,281.75 K,0.00649 ± 0.0026 S/m
same,electrical conductivity,281.85 K,0.00648 ± 0.0026 S/m
same,electrical conductivity,282.05 K,0.00651 ± 0.0026 S/m
same,electrical conductivity,282.45 K,0.00667 ± 0.0027 S/m
same,electrical conductivity,282.55 K,0.00678 ± 0.0027 S/m
same,electrical conductivity,282.65 K,0.00648 ± 0.0026 S/m
same,electrical conductivity,282.75 K,0.00655 ± 0.0026 S/m
same,electrical conductivity,282.95 K,0.00662 ± 0.0027 S/m
same,electrical conductivity,283.05 K,0.00638 ± 0.0026 S/m
same,electrical conductivity,283.15 K,0.00641 ± 0.0026 S/m
same,electrical conductivity,283.25 K,0.0067 ± 0.0027 S/m
same,electrical conductivity,283.35 K,0.00677 ± 0.0027 S/m
same,electrical conductivity,283.45 K,0.00666 ± 0.0027 S/m
same,electrical conductivity,283.55 K,0.0068 ± 0.0027 S/m
same,electrical conductivity,283.75 K,0.00674 ± 0.0027 S/m
same,electrical conductivity,283.85 K,0.0068 ± 0.0027 S/m
same,electrical conductivity,283.95 K,0.00686 ± 0.0027 S/m
same,electrical conductivity,284.05 K,0.00653 ± 0.0026 S/m
same,electrical conductivity,284.15 K,0.00678 ± 0.0027 S/m
same,electrical conductivity,284.25 K,0.00646 ± 0.0026 S/m
same,electrical conductivity,284.45 K,0.00672 ± 0.0027 S/m
same,electrical conductivity,284.55 K,0.007 ± 0.0028 S/m
same,electrical conductivity,284.65 K,0.00699 ± 0.0028 S/m
same,electrical conductivity,284.75 K,0.00651 ± 0.0026 S/m
same,electrical conductivity,284.85 K,0.00686 ± 0.0027 S/m
same,electrical conductivity,285.05 K,0.00717 ± 0.0029 S/m
same,electrical conductivity,285.15 K,0.00708 ± 0.0028 S/m
same,electrical conductivity,285.25 K,0.00696 ± 0.0028 S/m
same,electrical conductivity,285.35 K,0.00725 ± 0.0029 S/m
same,electrical conductivity,285.45 K,0.00739 ± 0.003 S/m
same,electrical conductivity,285.55 K,0.00715 ± 0.0029 S/m
same,electrical conductivity,285.65 K,0.00719 ± 0.0029 S/m
same,electrical conductivity,285.85 K,0.00716 ± 0.0029 S/m
same,electrical conductivity,285.95 K,0.00733 ± 0.0029 S/m
same,electrical conductivity,286.05 K,0.00702 ± 0.0028 S/m
same,electrical conductivity,286.15 K,0.00705 ± 0.0028 S/m
same,electrical conductivity,286.25 K,0.007 ± 0.0028 S/m
same,electrical conductivity,286.35 K,0.00737 ± 0.0029 S/m
same,electrical conductivity,286.45 K,0.00737 ± 0.0029 S/m
same,electrical conductivity,286.55 K,0.00715 ± 0.0029 S/m
same,electrical conductivity,286.65 K,0.00719 ± 0.0029 S/m
same,electrical conductivity,286.75 K,0.00733 ± 0.0029 S/m
same,electrical conductivity,286.85 K,0.0074 ± 0.003 S/m
same,electrical conductivity,286.95 K,0.00708 ± 0.0028 S/m
same,electrical conductivity,287.05 K,0.00755 ± 0.003 S/m
same,electrical conductivity,287.15 K,0.00733 ± 0.0029 S/m
same,electrical conductivity,287.25 K,0.00744 ± 0.003 S/m
same,electrical conductivity,287.35 K,0.00761 ± 0.003 S/m
same,electrical conductivity,287.45 K,0.00728 ± 0.0029 S/m
same,electrical conductivity,287.55 K,0.00751 ± 0.003 S/m
same,electrical conductivity,287.65 K,0.00752 ± 0.003 S/m
same,electrical conductivity,287.75 K,0.0073 ± 0.0029 S/m
same,electrical conductivity,287.85 K,0.0076 ± 0.003 S/m
same,electrical conductivity,287.95 K,0.00774 ± 0.0031 S/m
same,electrical conductivity,288.05 K,0.0076 ± 0.003 S/m
same,electrical conductivity,288.15 K,0.00778 ± 0.0031 S/m
same,electrical conductivity,288.25 K,0.00766 ± 0.0031 S/m
same,electrical conductivity,288.35 K,0.00772 ± 0.0031 S/m
same,electrical conductivity,288.45 K,0.00805 ± 0.0032 S/m
same,electrical conductivity,288.55 K,0.00791 ± 0.0032 S/m
same,electrical conductivity,288.65 K,0.00778 ± 0.0031 S/m
